# Entries after “also recorded” stand apart in the source; their conditions may differ.
# B1: (EE)-II, N-terminally EE-tagged 55 kd PKB kinase (complete ORF of FIG. 3) expressed in cos-7 cells (protein)
# chain: MARTTSQLYDAVPIQSSVVLCSCPSPSMVRSQTESSTPPGIPGGSRQGPAMDGTAAEPRPGAGSLQHAQPPPQPRKKRPEDFKFGKILGEGSFSTVVLARELATSREYAIKILEKRHIIKENKVPYVTRERDVMSRLDHPFFVKLYFTFQDDEKLYFGLSYAKNGELLKYIRKIGSFDETCTRFYTAEIVSALEYLHGKGIIHRDLKPENILLNEDMHIQITDFGTAKVLSPESKQARANSFVGTAQYVSPELLTEKSACKSSDLWALGCIIYQLVAGLPPFRAGNEYLIFQKIIKLEYDFPEKFFPKARDLVEKLLVLDATKRLGCEEMEGYGPLKAHPFFESVTWENLHQQTPPKLTAYLPAMSEDDEDCYGNYDNLLSQFGCMQVSSSSSSHSLSASDTGLPQRSGSNIEQYIHDLDSNSFELDLQFSEDEKRLLLEKQAGGNPWHQFVENNLILKMGPVDKRKGLFARRRQLLLTEGPHLYYVDPVNKVLKGEIPWSQELRPEAKNFKTFFVHTPNRTYYLMDPSGNAHKWCRKIQEVWRQRYQSHPDAAVQ
# Columns and labels:
# [1] = system: PKB kinases; assay: Association of PKB kinases with sucrose-loaded lipid vesicles containing inositol phospholipids; type: binding, sheep
# Method: To assay association of PKB and PKB kinases with lipid vesicles and the effects of different lipids on the phosphorylation of PKB, the lipid vesicles were prepared by: sonicating dry lipid films into 0.2 M sucose; 20 mM KCl; 20 mM HEPES, pH 7.4 30° C.; 0.01% azide (to give 200 μM phosphatidylcholine, 150 μM phosphatidylserine, 20 μM phosphatidylethanolamine, 10 μM spingomylin plus the indicated concentrations of inositol lipids final in the assay. These were mixed with the relevant kinases in an assay buffer containing 1 mgml^−1 BSA; 0.12 M NaCl; 1 mM EGTA; 0.2 mM calcium; 1.5 mM MgCl2; 1 mM DTT; 0.01% azide; 5 mM KCl; 20 mM HEPES, pH 7.4, 30° C. (approx. 50 nM free calcium, all final concentrations in assay) with or without [γ^32P]-ATP (1 μM final concentration) and (EE)-PKB (2.5 μM final concentration). If the assays were to estimate associated of the kinases with the lipid vesicles then after 4 mins at 30° C. the assays were centrifuged (airfuge (Beckman) maximum speed for 30 mins). Aliquots of the supernatents were removed for assays or immunoblotting. […] Phosphorylation of PKB(s) were quantitated as described above. […]
# Under the same assay conditions used for the PKB phosphorylation studies, we investigated the association of both the PKB kinases and PKB itself (FIG. 2C) with the lipid vesicles in these assays. […] Phosphorylation of PKB(s) was quantitated as described herein.
# [2] = target: PKB kinases A-D; assay: PtdIns lipid-dependent phosphorylation and activation of PKB by purified PKB kinases (lipid vesicle assay); type: biochemical, sheep; conditions: mixed lipid vesicles, (EE)-PKB 2.5 μM, [γ32P]-ATP; FIG. 2A/2B
# Method: Assays were run in 2 stages. The first stage was run with mixed lipid vesicles either with or without D-D-S/A-PtdIns(3,4,5)P3 (final concentration 5 μM) and in the presence or absence of PKB kinase A (6 nM), wild-type (EE)-PKB (2.5 μM) or T308A/S473A-(EE)-PKB) and [γ^32P]-ATP (50 μM). The assays were stopped and PKB proteins were immunoprecipitated with α(EE)-beads, washed then incubated with [γ^32P]-ATP (10 μM) and myelin basic protein (MBP; 7 μM) to determine the activity of the immobilized PKB. The results are from a single experiment and are represented as means±SE(n=3-5); four further experiments gave similar results. PKB kinases B, C and D gave very similar results.
# Assays contained; a constant concentration of mixed lipid vesicles containing the indicated concentrations of inositol phospholipids, (EE)-PKB (2.5 μM), PKB kinase A (5 nM) and [γ^32P]-ATP (1 μM, total volume 12 μl). The data shown are pooled from 12 separate experiments and are means (n=3-6, their average se was 6%).
# To assay association of PKB and PKB kinases with lipid vesicles and the effects of different lipids on the phosphorylation of PKB, the lipid vesicles were prepared by: sonicating dry lipid films into 0.2 M sucose; 20 mM KCl; 20 mM HEPES, pH 7.4 30° C.; 0.01% azide (to give 200 μM phosphatidylcholine, 150 μM phosphatidylserine, 20 μM phosphatidylethanolamine, 10 μM spingomylin plus the indicated concentrations of inositol lipids final in the assay. These were mixed with the relevant kinases in an assay buffer containing 1 mgml^−1 BSA; 0.12 M NaCl; 1 mM EGTA; 0.2 mM calcium; 1.5 mM MgCl2; 1 mM DTT; 0.01% azide; 5 mM KCl; 20 mM HEPES, pH 7.4, 30° C. (approx. 50 nM free calcium, all final concentrations in assay) with or without [γ^32P]-ATP (1 μM final concentration) and (EE)-PKB (2.5 μM final concentration). If the assays were to estimate associated of the kinases with the lipid vesicles then after 4 mins at 30° C. the assays were centrifuged (airfuge (Beckman) maximum speed for 30 mins). Aliquots of the supernatents were removed for assays or immunoblotting. The pellets were rinsed rapidly with assay buffer, recentrifuged and dissolved in SDS-sample buffer. Phosphorylation of PKB(s) were quantitated as described above. […]
# [3] = target: (EE)-PKB, EE-tagged protein kinase B purified from SF9 cells (UniProt P31749)
# [4] = system: PKB kinases; assay: Phosphorylation of a water-soluble 30-mer peptide based on the PKB sequence around Thr308 by PKB kinases; type: biochemical, sheep; conditions: not shown
# [5] = target: (EE)-PKB, EE-tagged protein kinase B purified from SF9 cells, P31749
# Sequence of (EE)-PKB, EE-tagged protein kinase B purified from SF9 cells, P31749 (P31749 whole entry, looked up): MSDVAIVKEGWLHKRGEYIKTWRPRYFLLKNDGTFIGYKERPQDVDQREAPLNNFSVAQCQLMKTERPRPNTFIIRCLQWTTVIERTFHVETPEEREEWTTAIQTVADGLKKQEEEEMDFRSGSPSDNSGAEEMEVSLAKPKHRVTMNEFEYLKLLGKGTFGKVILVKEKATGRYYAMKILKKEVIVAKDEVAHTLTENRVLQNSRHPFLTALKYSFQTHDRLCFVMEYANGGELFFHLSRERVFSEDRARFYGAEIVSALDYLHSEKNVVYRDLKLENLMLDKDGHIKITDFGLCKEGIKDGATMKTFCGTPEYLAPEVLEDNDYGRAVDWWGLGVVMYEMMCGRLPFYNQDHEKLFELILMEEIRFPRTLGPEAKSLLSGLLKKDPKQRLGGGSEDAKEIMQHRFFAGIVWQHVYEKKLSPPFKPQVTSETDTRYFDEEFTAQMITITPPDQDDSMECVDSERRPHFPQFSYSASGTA
molecule,measurement,setting,value
"CCCCCCCCCCCCCCCC(=O)OC[C@H](COP(=O)(O)O[C@H]1[C@H](O)[C@@H](O)[C@H](OP(=O)(O)O)[C@@H](OP(=O)(O)O)[C@H]1O)OC(=O)CCCCCCCCCCCCCCC [D-D-P/P-PtdIns(3,4)P2]",association of PKB kinases with lipid vesicles containing the lipid,"[1]; 4 mins at 30° C., vesicles pelleted by centrifugation",associated with the lipid vesicles
"CCCCC/C=C\C/C=C\C/C=C\C/C=C\CCCC(=O)OC(COC(=O)CCCCCCCCCCCCCCCCC)COP(=O)(O)OC1C(O)C(OP(=O)(O)O)C(OP(=O)(O)O)C(OP(=O)(O)O)C1O [D-D-S/A-PtdIns(3,4,5)P3, (1-stearoyl, 2-arachidonyl) snphosphatidyl D-myo-inositol (3,4,5)-trisphosphate]",molar percentage of the lipid in vesicles at which PKB kinases associated,[1]; very low molar percentages,0.003%
same,PKB kinase phosphorylation/activation of PKB in the presence of the lipid,[2],phosphorylate and activate; also recorded: equally effectively activated
"CCCCC/C=C\C/C=C\C/C=C\C/C=C\CCCC(=O)OC(COC(=O)CCCCCCCCCCCCCCCCC)COP(=O)(O)OC1C(O)C(OP(=O)(O)O)C(OP(=O)(O)O)C(OP(=O)(O)O)C1O [D-L-S/A-PtdIns(3,4,5)P3, (2-arachidonyl, 3-stearoyl) sn-phosphatidyl D-myoinositol(3,4,5)-trisphosphate]",PKB kinase phosphorylation/activation of PKB in the presence of the lipid,[2],equally effectively activated
PKB kinase A purified from sheep brain cytosol,phosphorylation and activation of PKB (activation judged by myelin basic protein phosphorylation),[3],"All four activities phosphorylate and activate (as judged by mylein basic protein (MBP) phosphorylation) PKB in the presence of the biological stereoisomers of PtdIns(3,4,5)P3 or PtdIns(3,4)P2"
"phosphatidylinositol4,5-bisphosphate [PtdIns(4,5)P2]",PKB kinase phosphorylation/activation of PKB in the presence of the lipid,[2],inactive against PKB
"phosphatidylinositol-3,4,5-triphosphate [PtdIns(3,4,5)P3]",effect of the lipid on phosphorylation of 30-mer PKB Thr308 peptide,[4],dramatically inhibited
"phosphatidylinositol-3,4-bisphosphate [PtdIns(3,4)P2]",effect of the lipid on phosphorylation of 30-mer PKB Thr308 peptide,[4],dramatically inhibited
same,PKB kinase phosphorylation/activation of PKB in the presence of the lipid,[2],phosphorylate and activate
B1,"PKB kinase activity ([32P] in PKB, autoradiogram)",[5],"The protein with the intact protein kinase domain phosphorylated PKB in a PtdIns(3,4,5)P3-sensitive manner"
